Reference: patent publication US5700804A, “Pharmaceutical compounds” (Xenova Limited, priority 1992, dated 1997)

Target: PAI-1 (Homo sapiens, UniProt P05121)
Assay: PAI chromogenic substrate assay (first S2251 assay, tPA/plasminogen system)
Type: biochemical
Procedure: In this assay, a compound is incubated with PAI-1 prior to addition to the tPA assay system. Inhibition of PAI-1 results in the production of plasmin from plasminogen. In turn, plasmin cleaves the chromogenic substrate S2251 (Kabi Vitrum) producing pNA (p-nitroaniline) which is detected spectrophotometrically at 405 nm (K. Nilsson et al, Fibrinolysis (1987) 1, 163-168).
Compounds of formula (A) were tested in a PAI chromogenic substrate assay. In the first assay (K. Nilsson, Fibrinolysis (1987) 1, 163-168) each compound was incubated with PAI-1 prior to addition to the tPA assay system. […] In turn, the plasmin cleaved the chromogenic substrate S2251 (Kabi-Vitrum) producing pNA (p-nitroaniline) which was detected spectrophotometrically at 405 nm.

Sequence of PAI-1 (P05121 24-402): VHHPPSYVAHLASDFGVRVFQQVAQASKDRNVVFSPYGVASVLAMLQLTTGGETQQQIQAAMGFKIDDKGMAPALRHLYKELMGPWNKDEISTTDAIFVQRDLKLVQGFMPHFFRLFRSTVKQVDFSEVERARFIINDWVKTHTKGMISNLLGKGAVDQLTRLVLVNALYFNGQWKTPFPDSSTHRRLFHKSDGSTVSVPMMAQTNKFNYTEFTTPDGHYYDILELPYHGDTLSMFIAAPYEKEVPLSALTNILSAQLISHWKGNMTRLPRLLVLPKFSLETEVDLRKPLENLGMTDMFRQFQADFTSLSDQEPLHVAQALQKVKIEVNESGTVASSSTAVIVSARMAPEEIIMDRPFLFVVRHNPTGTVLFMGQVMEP

Inhibition of PAI-1 in the first S2251 chromogenic substrate assay (Concentration 3.75 μm)	Inhibition of PAI-1 in the first S2251 chromogenic substrate assay (Concentration 7.5 μm)	Inhibition of PAI-1 in the first S2251 chromogenic substrate assay (Concentration 15 μm)	Inhibition of PAI-1 in the first S2251 chromogenic substrate assay (Concentration 30 μm)	Inhibition of PAI-1 in the first S2251 chromogenic substrate assay (Concentration 60 μm)	Inhibition of PAI-1 in the first S2251 chromogenic substrate assay (Concentration 12.5 μm)	Inhibition of PAI-1 in the first S2251 chromogenic substrate assay (Concentration 25 μm)	Inhibition of PAI-1 in the first S2251 chromogenic substrate assay (Concentration 50 μm)	Inhibition of PAI-1 in the first S2251 chromogenic substrate assay (Concentration 100 μm)	Structure (SMILES)	Inhibition of PAI-1 in the first S2251 chromogenic substrate assay (Concentration 6.25 μm)
1%	4%	59%	57%	58%	–	–	–	–	CC(=O)Nc1ccc(/C=c2\[nH]c(=O)/c(=C/c3ccc(Cl)cc3)[nH]c2=O)cc1 [Compound 42, (3Z,6Z)-3-(4-Acetamidobenzylidene)-6-(4-chlorobenzylidene)-2,5-piperazinedione]	–
–	–	–	–	–	1%	1%	2%	51%	CC(=O)NCc1ccc(/C=c2\[nH]c(=O)/c(=C/c3ccccc3)[nH]c2=O)cc1 [Compound 44, (3Z,6Z)-3-(4-Acetamidomethylbenzylidene)-6-benzylidene-2,5-piperazinedione]	1%
–	–	–	–	–	1%	1%	13%	53%	O=c1[nH]/c(=C\c2ccccc2)c(=O)[nH]/c1=C\c1ccccc1 [Compound 45, (3Z,6Z)-3,6-Dibenzylidene-2,5-piperazinedione]	–
–	–	–	–	–	14%	38%	42%	39%	COc1ccc(/C=c2\[nH]c(=O)/c(=C/c3ccc(S(C)(=O)=O)cc3)[nH]c2=O)cc1 [Compound 46, (3Z,6Z)-3-(4-Methoxybenzylidene)-6-(4-methylsulfonylbenzylidene)-2,5-piperazinedione]	–
–	–	–	–	–	1%	8%	47%	60%	COc1ccc(/C=c2\[nH]c(=O)/c(=C/c3ccc(OC(C)C)cc3)[nH]c2=O)cc1 [Compound 49, (3Z,6Z)-3-(4-isopropoxybenzylidene)-6-(4-methoxybenzylidene)-2,5-piperazinedione]	–
–	–	–	–	–	2%	22%	37%	62%	COc1ccc(/C=c2\[nH]c(=O)/c(=C/c3ccc(C(C)(C)C)cc3)[nH]c2=O)cc1 [Compound 50, (3Z,6Z)-3-(4-methoxybenzylidene)-6-(4-tert-butylbenzylidene)-2,5-piperazinedione]	–
–	–	–	–	–	5%	38%	61%	79%	CC(C)(C)c1ccc(/C=c2\[nH]c(=O)/c(=C/c3ccccc3)[nH]c2=O)cc1 [Compound 51, (3Z,6Z)-6-Benzylidene-3-(4-tert-butylbenzylidene)-2,5-piperazinedione]	–
–	–	–	–	–	2%	15%	45%	68%	CC(C)Oc1ccc(/C=c2\[nH]c(=O)/c(=C/c3ccccc3)[nH]c2=O)cc1 [Compound 52, (3Z,6Z)-6-Benzylidene-3-(4-isopropoxybenzylidene)-2,5-piperazinedione]	–
–	–	–	–	–	2%	9%	32%	55%	COc1ccc(/C=c2\[nH]c(=O)/c(=C/c3ccccc3Br)[nH]c2=O)cc1 [Compound 53, (3Z,6Z)-3-(2-Bromobenzylidene)-6-(4-methoxybenzylidene)-2,5-piperazinedione]	–
–	–	–	–	–	0%	1%	0%	50%	O=c1[nH]/c(=C\c2ccc(F)cc2F)c(=O)[nH]/c1=C\c1ccccc1 [Compound 54, (3Z,6Z)-6-Benzylidene-3-(2,4-difluorobenzylidene)-2,5-piperazinedione]	–
–	–	–	–	–	1%	11%	43%	65%	O=c1[nH]/c(=C\c2ccccc2Br)c(=O)[nH]/c1=C\c1ccccc1 [Compound 55, (3Z,6Z)-6-Benzylidene-3-(2-bromobenzylidene)-2,5-piperazinedione]	–
–	–	–	–	–	2%	38%	72%	82%	COc1ccc(/C=c2\[nH]c(=O)/c(=C/c3ccc(CSC)cc3)[nH]c2=O)cc1 [Compound 57, (3Z,6Z)-3-(4-Methoxybenzylidene)-6-(4-methylthiomethylbenzylidene)-2,5-piperazinedione]	–

Structure (SMILES)	Inhibition of PAI-1 in the first S2251 chromogenic substrate assay (Concentration 3.75 μm)	Inhibition of PAI-1 in the first S2251 chromogenic substrate assay (Concentration 7.5 μm)	Inhibition of PAI-1 in the first S2251 chromogenic substrate assay (Concentration 15 μm)	Inhibition of PAI-1 in the first S2251 chromogenic substrate assay (Concentration 30 μm)	Inhibition of PAI-1 in the first S2251 chromogenic substrate assay (Concentration 60 μm)	Inhibition of PAI-1 in the first S2251 chromogenic substrate assay (Concentration 12.5 μm)	Inhibition of PAI-1 in the first S2251 chromogenic substrate assay (Concentration 25 μm)	Inhibition of PAI-1 in the first S2251 chromogenic substrate assay (Concentration 50 μm)	Inhibition of PAI-1 in the first S2251 chromogenic substrate assay (Concentration 100 μm)	Inhibition of PAI-1 in the first S2251 chromogenic substrate assay (Concentration 6.25 μm)
CC(=O)OCc1ccc(/C=c2\[nH]c(=O)/c(=C/c3ccccc3)[nH]c2=O)cc1 [Compound 43, (3Z,6Z)-3-(4-Acetoxymethylbenzylidene)-6-benzylidene-2,5-piperazinedione]	–	–	–	–	–	1%	3%	45%	59%	1%
CCCCOc1ccc(/C=c2\[nH]c(=O)/c(=C/c3ccc(OC)cc3)[nH]c2=O)cc1 [Compound 47, (3Z,6Z)-3-(4-Butoxybenzylidene)-6-(4-methoxybenzylidene)-2,5-piperazinedione]	–	–	–	–	–	14%	14%	58%	75%	–
CCCCOc1ccc(/C=c2\[nH]c(=O)/c(=C/c3ccccc3)[nH]c2=O)cc1 [Compound 48, (3Z,6Z)-6-Benzylidene-3-(4-butoxybenzylidene)-2,5-piperazinedione]	–	–	–	–	–	3%	26%	57%	73%	–
COc1ccc(/C=c2\[nH]c(=O)/c(=C/c3ccc(CNC(=O)OC(C)(C)C)cc3)[nH]c2=O)cc1 [Compound 56, (3Z,6Z)-(4-Methoxybenzylidene)-6-(4-tert-butoxycarbonylaminomethylbenzylidene)-2,5-piperazinedione]	–	–	–	–	–	2%	15%	60%	82%	–
CC(=O)Nc1ccc(/C=c2\[nH]c(=O)/c(=C/c3ccc(COC(C)=O)cc3)[nH]c2=O)cc1 [Compound 58, (3Z,6Z)-3-(4-Acetamidobenzylidene)-6-(4-acetoxymethylbenzylidene)-2,5-piperazinedione]	–	–	–	–	–	1%	1%	31%	60%	–
